Biological target: FigC (Francisella tularensis, UniProt Q15EG8)
Settings: covalent (Schiff base with K63); active site at dimer interface

Chain of FigC (Q15EG8 1-417): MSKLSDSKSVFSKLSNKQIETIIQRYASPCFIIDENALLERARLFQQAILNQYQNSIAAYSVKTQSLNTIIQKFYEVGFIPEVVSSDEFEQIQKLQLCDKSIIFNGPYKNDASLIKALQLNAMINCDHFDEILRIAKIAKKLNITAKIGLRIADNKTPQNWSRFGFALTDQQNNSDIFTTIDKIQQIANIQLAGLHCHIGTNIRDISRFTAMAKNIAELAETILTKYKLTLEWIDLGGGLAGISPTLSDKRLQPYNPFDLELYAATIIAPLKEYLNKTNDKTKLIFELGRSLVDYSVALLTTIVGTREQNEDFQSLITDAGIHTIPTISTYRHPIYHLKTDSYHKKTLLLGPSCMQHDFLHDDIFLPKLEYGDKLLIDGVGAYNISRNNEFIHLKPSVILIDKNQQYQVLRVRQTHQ

Cc1ncc(COP(=O)(O)O)c(C=O)c1O [PLP]
X-ray crystal structure, 2.1 Å, SeMet SAD: all four active sites showed good density for the cofactor PLP
